{"source": "patent US20240099997A1", "about": "“METALLOENZYME MODULATORS” (Regents of the University of Minnesota, priority 2022, published 2024)", "biological_target": "T1, horse heart myoglobin (Mb) (Equus caballus, UniProt P68082)", "T1 construct": "Lyophilized horse heart Mb, human Hb, equine heart cytochrome c were in their ferric form when dissolved in buffer; purchased Sigma M1882; host or cells: horse heart", "T1 sequence (P68082 whole entry)": "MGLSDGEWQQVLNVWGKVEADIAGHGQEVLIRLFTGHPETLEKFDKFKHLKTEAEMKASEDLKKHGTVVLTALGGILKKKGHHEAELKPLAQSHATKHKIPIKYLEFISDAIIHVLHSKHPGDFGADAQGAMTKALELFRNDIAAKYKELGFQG", "assay": "UV-Vis spectrophotometric ligand affinity study, myoglobin", "conditions": "ferric horse heart Mb, PBS pH 7.4, Soret shift 409 to 422 nm; read-out: Kd (binding affinity to ferric Mb heme)", "method": "UV-Vis spectrophotometric ligand affinity studies for ferric and ferrous-oxy heme proteins were performed using a Cary4000 UV-Vis spectrophotometer. These studies were performed in an aerobic environment. Lyophilized horse heart Mb, human Hb, equine heart cytochrome c were in their ferric form when dissolved in buffer. DosS GAF-A was purified in its ferric form. Ferrous-oxy forms of Mb and hemoglobin (Hb) were prepared by addition of a small aliquot of sodium dithionite to the proteins (in air) and running the protein through PD-10 columns twice to remove excess dithionite/other products. […] The protein concentration was set to ˜1 μM to obtain a desirable absorbance reading at the Soret peak region. […] For those fragments with some intrinsic absorbance in the aforementioned region, a second titration was performed with the same conditions, but without protein. […]\nUV-Vis spectrophotometric ligand affinity studies for ferrous heme proteins were performed using a Cary 60 UV-Vis spectrophotometer. […] The sum of the maximal and minimal differences in absorbance was plotted for each concentration point for each ligand. […]\nwhere Y is the observed change in absorbance, A is the maximum change in absorbance, Kd is the dissociation constant of the ligand, L is the ligand concentration and P is the protein concentration. The maximal change in absorbance, A, is obtained through nonlinear regression. […]"}
{"smiles": "N#CN1CCSCC1", "note": "[HT-N1, thiomorpholine N-carbonitrile]", "values": [{"measurement": "Kd", "value": "2570 ± 328", "unit": "µM"}]}
